Consider 38 molecules from patent US20070203159A1, “Purine compounds” (priority 2006, published 2007).

Molecule `COc1ccc(Cn2cnc3c(-c4ccco4)nc(C)nc32)cc1` [Example 76, 6-(2-Furyl)-9-(4-methoxyphenylmethyl)-2-methyl-9H-purine] had a melting point of 127 to 130 °C.

The molecule `COc1ccc(Cn2cnc3c(-c4ccco4)nc(NC(C)=O)nc32)cc1` had a melting point of 167 to 168 °C.

`CCSc1nc(-c2ccco2)c2ncn(Cc3ccc(OC)cc3)c2n1` yielded a melting point of 116 to 117 °C.

Molecule `CC(=O)Nc1ccc(Cn2cnc3c(-c4ccco4)ncnc32)cc1` [Example 44, 9-(4-Acetamidophenylmethyl)-6-(2-furyl)-9H-purine] displayed a melting point of 278 to 280 °C.

With `COc1ccc(Cn2cnc3c(-c4ccco4)nc(-c4ccccc4)nc32)cc1` [Example 84, 6-(2-Furyl)-9-(4-methoxyphenylmethyl)-2-phenyl-9H-purine], the melting point was 140 to 142 °C.

Molecule `Oc1ccc(Cn2cnc3c(-c4ccco4)ncnc32)cc1` [Example 41, 6-(2-Furyl)-9-(4-hydroxyphenylmethyl)-9H-purine] gave a melting point of 231 to 233 °C.

Take `CCc1nc(-c2ccco2)c2ncn(Cc3ccc(OC)cc3)c2n1` [Example 77, 2-Ethyl-6-(2-furyl)-9-(4-methoxyphenylmethyl)-9H-purine]: the melting point is 119 to 120 °C.

Take `COc1ccc(Cn2cnc3c(-c4ccco4)nc(N(C(C)=O)C(C)=O)nc32)cc1`: the melting point fell in the range of 187 to 189 °C.

Take `COc1ccc(Cn2cnc3c(-c4ccco4)nc(S(C)(=O)=O)nc32)cc1` [Example 70, 6-(2-Furyl)-9-(4-methoxyphenylmethyl)-2-methylsulfonyl-9H-purine]: the melting point lay in the range of 184 to 185 °C.

For `Nc1ccc(Cn2cnc3c(-c4ccco4)ncnc32)cc1` [Example 45, 9-(4-Aminophenylmethyl)-6-(2-furyl)-9H-purine], the melting point was 195 to 197 °C.

The molecule `COc1ccc(Cn2cnc3c(-c4ccco4)nc(C#N)nc32)cc1` [Example 87, 6-(2-Furyl)-9-(4-methoxyphenylmethyl)-9H-purine-2-carbonitrile] had a melting point of 205 to 207 °C.

`COc1ccc(Cn2c(-c3ccco3)nc3c(-c4ccco4)ncnc32)cc1` [Example 103, 6,8-Di(2-furyl)-9-(4-methoxyphenylmethyl)-9H-purine] came in with a melting point of 134 to 136 °C.

For `COc1ccc(Cn2c(OC)nc3c(-c4ccco4)ncnc32)cc1` [Example 104, 6-(2-Furyl)-8-methoxy-9-(4-methoxyphenylmethyl)-9H-purine], the melting point was in the range of 143 to 144 °C.

As to `C#Cc1nc(-c2ccco2)c2ncn(Cc3ccc(OC)cc3)c2n1` [Example 89, 2-Ethynyl-6-(2-furyl)-9-(4-methoxyphenylmethyl)-9H-purine], the melting point stood at 155 °C.

`CCCCOc1nc(-c2ccco2)c2ncn(Cc3ccc(OC)cc3)c2n1` registered a melting point of 113 °C.

Consider `C=Cc1nc(-c2ccco2)c2ncn(Cc3ccc(OC)cc3)c2n1` [Example 82, 2-Ethenyl-6-(2-furyl)-9-(4-methoxyphenylmethyl)-9H-purine], for which the melting point fell in the range of 94 to 95 °C.

`COc1ccc(Cn2cnc3c(-c4ccco4)nc(C(F)(F)F)nc32)cc1` [Example 94, 6-(2-Furyl)-9-(4-methoxyphenylmethyl)-2-trifluoromethyl-9H-purine] came in with a melting point of 149 to 150 °C.

As to `COc1ccc(Cn2cnc3c(-c4ccco4)nc(C(C)=O)nc32)cc1` [Example 86, 2-Acetyl-6-(2-furyl)-9-(4-methoxyphenylmethyl)-9H-purine], the melting point was in the range of 166 to 167 °C.

In the case of `COc1cc(Cn2cnc3c(-c4ccco4)ncnc32)cc(OC)c1OC` [Example 36, 6-(2-Furyl)-9-(3,4,5-trimethoxyphenylmethyl)-9H-purine], the melting point lay in the range of 195 to 196 °C.

As for `COc1ccc(Cn2cnc3c(-c4ccco4)nc(OC(C)C)nc32)cc1`, the melting point fell in the range of 145 to 146 °C.

Take `COc1ccc(Cn2c(Br)nc3c(-c4ccco4)ncnc32)cc1` [Example 101, 8-Bromo-6-(2-furyl)-9-(4-methoxyphenylmethyl)-9H-purine]: the melting point was in the range of 150 to 151 °C.

For `FC(F)(F)c1ccc(Cn2cnc3c(-c4ccco4)ncnc32)cc1` [Example 30, 6-(2-Furyl)-9-(4-trifluoromethylphenylmethyl)-9H-purine], the melting point was 159 to 161 °C.

Regarding `C=C(OCC)c1nc(-c2ccco2)c2ncn(Cc3ccc(OC)cc3)c2n1` [Example 83, 2-(1-Ethoxyvinyl)-6-(2-furyl)-9-(4-methoxyphenylmethyl)-9H-purine], the melting point was 144 to 145 °C.

In the case of `COc1ccc(Cn2cnc3c(-c4ccco4)nc(OC)nc32)cc1` [Example 74, 6-(2-Furyl)-2-methoxy-9-(4-methoxyphenylmethyl)-9H-purine], the melting point is 167 to 169 °C.

As to `FC(F)(F)Oc1ccc(Cn2cnc3c(-c4ccco4)ncnc32)cc1` [Example 37, 6-(2-Furyl)-9-(4-trifluoromethoxyphenylmethyl)-9H-purine], the melting point was in the range of 146 to 147 °C.

`COc1ccc(Cn2cnc3c(-c4ccco4)nc(C(C)C)nc32)cc1` [Example 78, 6-(2-Furyl)-9-(4-methoxyphenylmethyl)-2-(1-methylethyl)-9H-purine] yielded a melting point of 123 °C.

In turn, `COc1ccc(Cn2cnc3c(-c4ccco4)nc(I)nc32)cc1` displayed a melting point of 145 to 148 °C.

The molecule `CNc1nc(-c2ccco2)c2ncn(Cc3ccc(OC)cc3)c2n1` showed a melting point of 144 to 145 °C.

In the case of `CCCOc1nc(-c2ccco2)c2ncn(Cc3ccc(OC)cc3)c2n1`, the melting point was 119 °C.

`COc1ccc(Cn2cnc3c(-c4ccco4)nc([N+](=O)[O-])nc32)cc1` [Example 72, 6-(2-Furyl)-9-(4-methoxyphenylmethyl)-2-nitro-9H-purine] came in with a melting point of 182 to 183 °C.

`CCOc1nc(-c2ccco2)c2ncn(Cc3ccc(OC)cc3)c2n1` registered a melting point of 137 to 138 °C.

The molecule `COc1ccc(Cn2c(Cl)nc3c(-c4ccco4)ncnc32)cc1` [Example 99, 8-Chloro-6-(2-furyl)-9-(4-methoxyphenylmethyl)-9H-purine] showed a melting point of 156 to 157 °C.

In turn, `COc1ccc(Cn2c(O)nc3c(-c4ccco4)ncnc32)cc1` [Example 105, 6-(2-Furyl)-8-hydroxy-9-(4-methoxyphenylmethyl)-9H-purine] returned a melting point of 249 to 251 °C.

As to `CCCCc1nc(-c2ccco2)c2ncn(Cc3ccc(OC)cc3)c2n1` [Example 79, 2-n-Butyl-6-(2-furyl)-9-(4-methoxyphenylmethyl)-9H-purine], the melting point is 103 °C.

Consider `COc1ccc(Cn2cnc3c(-c4ccco4)nc(F)nc32)cc1` [Example 57, 2-Fluoro-6-(2-furyl)-9-(4-methoxyphenylmethyl)-9H-purine], for which the melting point was in the range of 210 to 215 °C.

For the molecule `COc1ccc(Cn2cnc3c(-c4ccco4)nc(N)nc32)cc1` [Example 61, 2-Amino-6-(2-furyl)-9-(4-methoxyphenylmethyl)-9H-purine], the melting point is 235 to 237 °C (dec.).

In turn, `COc1ccc(CNc2nc(-c3ccco3)c3ncn(Cc4ccc(OC)cc4)c3n2)cc1` [Example 65, 6-(2-Furyl)-2-(4-methoxyphenylmethylamino)-9-(4-methoxyphenylmethyl)-9H-purine] gave a melting point of 153 to 154 °C.

The molecule `COc1ccc(Cn2c(Cl)nc3c(-c4ccc(Cl)o4)ncnc32)cc1` displayed a melting point of 166 to 168 °C.

What is called melting point is the temperature of the solid-liquid transition.
